Source: patent US20250195460A1, “MEDIUM CHAIN TRIGLYCERIDE AND SHORT CHAIN FATTY ACID COMPOSITIONS & METHODS OF USE THEREOF” (priority 2023, published 2025)

Tested on: HepG2 cells
Test: Ketogenic activity in HepG2 cells (ketone levels in cell supernatants)
Format: cell-based
Details: each component 2.4 mM, glucose-free media, up to 135 minutes, FIG. 1
Protocol: In this Example, the ketogenic activities of various compositions were tested in HepG2 cells. More particularly, the ketogenic activity of butyric acid (2.4 mM) (“BA”) alone; beta-hydroxybutyrate (2.4 mM) (“BHB”) alone; caprylic acid (2.4 mM) (“CA”) alone; caprylic acid (2.4 mM) combined with butyric acid (2.4 mM); and a combination of caprylic acid (2.4 mM), butyric acid (2.4 mM), and beta-hydroxybutyrate (2.4 mM) were all tested in HepG2 cells. Each compound (or combination of compounds) was added to a solvent containing glucose-free media that included 10% fetal bovine serum (FBX), 1 mM sodium pyruvate, and 1 mM glutamine.
Each test composition was administered to HepG2 cells in a cell culture plate. Each composition was tested with three replicates. Ketone levels in the HepG2 cell supernatants were measured at the time of administration (time=0) and every 45 minutes thereafter, up to 135 minutes. The results are presented as the difference between the ketone concentration that was measured at each time point (i.e., measured every 45 minutes) and the ketone concentration that was measured at time=0 for each test composition, such that any positive measurement indicates an increase in ketone levels from the baseline time=0 measurement.

Row | SMILES | induction of ketogenesis (generation of ketones)
1 | CCCCCCCC(=O)O [caprylic acid, caprylic acid (octanoic acid)] | neither butyric acid alone, nor caprylic acid alone, was shown to induce ketogenesis
2 | CCCC(=O)O [butyric acid] | neither butyric acid alone, nor caprylic acid alone, was shown to induce ketogenesis
